Legend:
Hsp90α = Hsp90α (Homo sapiens, UniProt P07900); test: fluorescence polarization competition with FITC-geldanamycin; assay type: binding
PDHK1 = PDHK1 (Homo sapiens, UniProt Q15118); test: HotSpot […]-ATP radiometric filter-binding kinase assay; assay type: biochemical
Sequence of PDHK1 (Q15118 29-436): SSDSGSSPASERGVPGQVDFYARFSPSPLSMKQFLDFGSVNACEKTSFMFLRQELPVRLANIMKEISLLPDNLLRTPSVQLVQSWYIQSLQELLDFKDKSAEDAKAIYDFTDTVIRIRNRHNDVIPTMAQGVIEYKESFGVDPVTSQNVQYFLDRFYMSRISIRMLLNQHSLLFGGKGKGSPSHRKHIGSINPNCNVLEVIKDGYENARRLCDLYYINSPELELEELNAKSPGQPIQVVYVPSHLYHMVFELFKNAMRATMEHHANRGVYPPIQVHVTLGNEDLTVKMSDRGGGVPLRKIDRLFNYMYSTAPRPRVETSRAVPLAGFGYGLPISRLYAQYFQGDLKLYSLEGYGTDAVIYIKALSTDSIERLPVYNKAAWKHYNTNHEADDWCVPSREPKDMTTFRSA

IC50 (Hsp90α) | IC50 (PDHK1) | SMILES
1.7 µM |  | CC(C)c1cc(-n2nnc(C(=O)Nc3c(F)ccc(NS(C)(=O)=O)c3F)c2-c2ccncc2)c(O)cc1O [4b, N‐[2,6‐difluoro‐3‐(methylsulfonamido)phenyl]‐1‐(2,4‐dihydroxy‐5‐isopropylphenyl)‐5‐(pyridin‐4‐yl)‐1H‐1,2,3‐triazole‐4‐carboxamide]
1.1 µM |  | CCS(=O)(=O)Nc1ccc(F)c(NC(=O)c2nnn(-c3cc(C(C)C)c(O)cc3O)c2-c2ccncc2)c1F [4c, 1‐(2,4‐dihydroxy‐5‐isopropylphenyl)‐N‐[3‐(ethylsulfonamido)‐2,6‐difluorophenyl]‐5‐(pyridin‐4‐yl)‐1H‐1,2,3‐triazole‐4‐carboxamide]
0.03 µM | 38.3 µM | CCCS(=O)(=O)Nc1ccc(F)c(NC(=O)c2nnn(-c3cc(C(C)C)c(O)cc3O)c2-c2ccncc2)c1F [4d, N‐[2,6‐difluoro‐3‐(propylsulfonamido)phenyl]‐1‐(2,4‐dihydroxy‐5‐isopropylphenyl)‐5‐(pyridin‐4‐yl)‐1H‐1,2,3‐triazole‐4‐carboxamide]

More lines, now with the values behind:

SMILES | IC50 (Hsp90α) | IC50 (PDHK1)
CC(C)c1cc(-n2nnc(C(=O)Nc3cccc(NS(C)(=O)=O)c3)c2-c2ccncc2)c(O)cc1O [4a, 1‐(2,4‐dihydroxy‐5‐isopropylphenyl)‐N‐[3‐(methylsulfonamido)phenyl]‐5‐(pyridin‐4‐yl)‐1H‐1,2,3‐triazole‐4‐carboxamide] | 0.007 µM | 28.7 µM
O=C1Nc2ccc(I)cc2C1=Cc1cc(Br)c(O)c(Br)c1 [GW5074, reference compound] |  | 7.1 µM
